# Source: ChEMBL document CHEMBL4823307, “Discovery of benzimidazole derivatives as potent and selective aldehyde dehydrogenase 1A1 (ALDH1A1) inhibitors with glucose consumption improving activity” (Bioorg Med Chem, 2021)
# Target: T1, Aldehyde dehydrogenase 1A1 (Homo sapiens) (UniProt P00352)
# T1 sequence (whole entry): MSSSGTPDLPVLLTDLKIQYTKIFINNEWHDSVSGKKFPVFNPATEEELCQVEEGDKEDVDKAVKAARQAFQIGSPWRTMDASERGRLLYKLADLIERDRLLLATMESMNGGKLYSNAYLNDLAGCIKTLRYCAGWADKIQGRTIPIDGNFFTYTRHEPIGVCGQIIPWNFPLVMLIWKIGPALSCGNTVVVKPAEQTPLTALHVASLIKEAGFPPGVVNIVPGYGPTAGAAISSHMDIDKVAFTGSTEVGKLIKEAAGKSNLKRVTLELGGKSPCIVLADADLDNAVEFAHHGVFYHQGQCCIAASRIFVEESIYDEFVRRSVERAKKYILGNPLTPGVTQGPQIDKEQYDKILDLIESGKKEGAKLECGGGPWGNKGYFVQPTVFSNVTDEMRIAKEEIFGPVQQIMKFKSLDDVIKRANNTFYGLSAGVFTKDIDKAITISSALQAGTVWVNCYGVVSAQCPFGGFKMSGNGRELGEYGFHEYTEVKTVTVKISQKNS
# Experiment: Inhibition of human ALDH1A1 assessed as NADH formation using propionaldehyde as substrate at 10 uM by spectrophotometry
row,SMILES,inhibition
1,Cc1ccccc1Cn1c(CN2CCN(C(=O)C3CC3)CC2)nc2ccccc21,29.1%
2,CC(C)CCn1c(CN2CCN(C(=O)C3CC3)CC2)nc2ccccc21,70%
3,Cc1cccc(Cn2c(CN3CCN(C(=O)c4ccc(F)cc4)CC3)nc3ccccc32)c1,27.1%
4,Cc1cccc(Cn2c(OC3CCN(C(=O)c4ccco4)CC3)nc3ccccc32)c1,68.3%
5,CC(=O)N1CCN(Cc2nc3ccccc3n2Cc2cccc(C)c2)CC1,70.3%
6,O=C(C1CC1)N1CCN(Cc2nc3ccccc3n2Cc2ccc(Cl)cc2)CC1,56.6%
7,CC(C)CCn1c(OC2CCN(C(=O)C3CC3)CC2)nc2ccccc21,56.4%
8,Cc1cccc(Cn2c(NC3CCN(C(=O)C4CC4)CC3)nc3ccccc32)c1,49.1%
9,Cc1cccc(Cn2c(CN3CCN(C(=O)c4ccc(Br)cc4)CC3)nc3ccccc32)c1,25.8%
10,COc1ccc(C(=O)N2CCN(Cc3nc4ccccc4n3Cc3cccc(C)c3)CC2)cc1,55.5%
11,Cc1cccc(Cn2c(OC3CCN(C(=O)C4CC4)CC3)nc3ccccc32)c1,80.6%
12,O=C(C1CC1)N1CCN(Cc2nc3ccccc3n2CC2CCCC2)CC1,44.5%
13,Cc1cccc(Cn2c(CN3CCN(C(=O)c4ccc(C(C)C)cc4)CC3)nc3ccccc32)c1,67.6%
14,CC(C)Cn1c(CN2CCN(C(=O)C3CC3)CC2)nc2ccccc21,13.1%
15,O=C(C1CC1)N1CCN(Cc2nc3ccccc3n2Cc2ccccc2)CC1,23.9%
16,CCCC(=O)N1CCN(Cc2nc3ccccc3n2Cc2cccc(C)c2)CC1,79%
17,O=C(C1CC1)N1CCN(Cc2nc3ccccc3n2Cc2ccccc2F)CC1,40.7%
18,Cc1cccc(Cn2c(CN3CCN(C(=O)c4cccnc4)CC3)nc3ccccc32)c1,24.5%
19,Cc1cccc(Cn2c(CN3CCN(C(=O)c4ccc(C#N)cc4)CC3)nc3ccccc32)c1,20.8%
20,COc1cccc(Cn2c(CN3CCN(C(=O)C4CC4)CC3)nc3ccccc32)c1,44.4%
21,O=C(C1CC1)N1CCN(Cc2nc3ccccc3n2CC2CC2)CC1,21.2%

row,SMILES,inhibition
1,Cc1cccc(Cn2c(CN3CCN(C(=O)c4ccc([N+](=O)[O-])cc4)CC3)nc3ccccc32)c1,24.3%
2,Cc1cccc(Cn2c(CN3CCN(C(=O)C4CCC4)CC3)nc3ccccc32)c1,69.1%
3,CCn1c(CN2CCN(C(=O)C3CC3)CC2)nc2ccccc21,20.8%
4,Cc1cccc(Cn2c(NC3CCN(C(=O)c4ccco4)CC3)nc3ccccc32)c1,27.9%
5,Cc1cccc(Cn2c(CN3CCN(C(=O)C4CCCCC4)CC3)nc3ccccc32)c1,31.9%
6,O=C(C1CC1)N1CCN(Cc2nc3ccccc3n2Cc2cccc(F)c2)CC1,27.1%
7,Cc1cccc(Cn2c(CN3CCN(C(=O)c4ccco4)CC3)nc3ccccc32)c1,73.2%
8,Cc1cccc(Cn2c(CN3CCN(C(=O)c4ccc(C(F)(F)F)cc4)CC3)nc3ccccc32)c1,22.9%
9,Cc1ccc(C(=O)N2CCN(Cc3nc4ccccc4n3Cc3cccc(C)c3)CC2)cc1,64.9%
10,CC(C)CCn1c(CN2CCN(C(=O)c3ccco3)CC2)nc2ccccc21,42.1%
11,CCCCn1c(CN2CCN(C(=O)C3CC3)CC2)nc2ccccc21,18.2%
12,CC(C)CCn1c(NC2CCN(C(=O)C3CC3)CC2)nc2ccccc21,10.8%
13,O=C(C1CC1)N1CCN(Cc2nc3ccccc3n2Cc2ccccc2C(F)(F)F)CC1,56.3%
14,CCc1ccc(C(=O)N2CCN(Cc3nc4ccccc4n3Cc3cccc(C)c3)CC2)cc1,67%
15,Cc1cccc(Cn2c(CN3CCN(C(=O)c4cccs4)CC3)nc3ccccc32)c1,60.8%
16,Cc1cccc(Cn2c(CN3CCN(C(=O)c4ccccc4)CC3)nc3ccccc32)c1,60.9%
17,Cc1cccc(Cn2c(CN3CCN(C(=O)CC(C)C)CC3)nc3ccccc32)c1,71.4%
18,O=C(C1CC1)N1CCN(Cc2nc3ccccc3n2Cc2ccc(C(F)(F)F)cc2)CC1,37%
19,Cc1ccc(Cn2c(CN3CCN(C(=O)C4CC4)CC3)nc3ccccc32)cc1,51.5%
20,O=C(C1CC1)N1CCN(Cc2nc3ccccc3n2Cc2ccc(F)cc2)CC1,32.7%
